Measured values: US20210244637A1, “DEUTERATED POLYUNSATURATED FATTY ACIDS OR ESTERS THEREOF FOR COSMETIC APPLICATIONS” (Retrotope, Inc., priority 2020, published 2021)

Test system: 2-nonenal
Assay: Reduction in skin odor: 2-nonenal in urine of mice fed D2-LA ethyl ester
Assay type: in vivo
Settings: BALB/c mice; feed supplemented daily, no more than about 10% of PUFAs ingested; after 4 weeks of dosing; urine collected over 2 days; versus LA ethyl ester cohort
Method: Mice are known to generate skin odor and the causative agent is 2-nonenal. This example explores the contribution of lipid chain auto-oxidation to the generation of such skin odor. Specifically, two cohorts of BALB/c mice are tested. The feed of the first cohort is supplemented daily with D2-LA ethyl ester in an amount such that D2-LA ethyl ester constitutes no more than about 10% of the PUFAs ingested. The feed provided to the other cohort is supplemented with LA ethyl ester in otherwise identical amounts. After 4 weeks of dosing, the urine from each cohort is collected over a 2-day period and then analyzed to assess differences in the amount of 2-nonenal. Alternatively, skin samples can be evaluated for sebum exudates such as by swabs for chemical components.

For `[2H]C([2H])(/C=C\CCCCC)/C=C\CCCCCCCC(=O)OCC` [D2-linoleic acid ethyl ester], the “amount of 2-nonenal” value was “significant reduction”.
